Results taken from the supplement of paper PMC10307832.

Key:
Assay in all cases: relative viability (nuclei count vs DMSO), 5 days (fraction); higher = more cells survive
LC-2-ad = conditions: first compound 8 µM
Procedure, shortened: (§1)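 Five library-drug doses in √10 steps were combined with a fixed anchor-drug dose, or a single drug was given alone, by pin tool to lung cancer cell lines in 1536-well plates the day after seeding. Nuclei were stained and counted after 5 days. Relative viability is the nuclei count in treated wells over that in vehicle wells, taken as the median of duplicate plates.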

NCI-H322M = system: NCI-H322M
Procedure, shortened: as §1

CAL-12T = system: CAL-12T
Procedure, shortened: as §1

LU99A = system: LU99A
Procedure, shortened: as §1

NCI-H1792 = system: NCI-H1792
Procedure, shortened: as §1

201T = system: 201T
Procedure, shortened: as §1

UMC-11 = system: UMC-11
Procedure, shortened: as §1

RERF-LC-KJ = system: RERF-LC-KJ
Procedure, shortened: as §1

HCC-15 = system: HCC-15
Procedure, shortened: as §1

NCI-H1651 = system: NCI-H1651
Procedure, shortened: as §1

LCLC-103H = system: LCLC-103H
Procedure, shortened: as §1

LK-2 = system: LK-2
Procedure, shortened: as §1

Structure (SMILES): O=c1[nH]c2ccccc2n1C1CCN(CCCC(c2ccc(F)cc2)c2ccc(F)cc2)CC1 [Pimozide] + COc1cccc2cc(-c3nc([C@H]4CC[C@H](C(=O)O)CC4)n4ncnc(N)c34)[nH]c12 [OSI-027] (partner 0.5 µM)
- relative viability (LC-2-ad): 0.635
- relative viability (NCI-H322M; first compound 0.253 µM): 0.525
- relative viability (NCI-H322M; first compound 0.8 µM): 0.508
- relative viability (NCI-H322M; first compound 2.53 µM): 0.545
- relative viability (NCI-H322M; first compound 8 µM): 0.572
- relative viability (CAL-12T; first compound 0.08 µM): 0.756
- relative viability (CAL-12T; first compound 0.253 µM): 0.706
- relative viability (CAL-12T; first compound 0.8 µM): 0.673
- relative viability (CAL-12T; first compound 2.53 µM): 0.41
- relative viability (CAL-12T; first compound 8 µM): 0.561
- relative viability (LU99A; first compound 0.08 µM): 0.277
- relative viability (LU99A; first compound 0.253 µM): 0.277
- relative viability (LU99A; first compound 0.8 µM): 0.228
- relative viability (LU99A; first compound 2.53 µM): 0.302
- relative viability (LU99A; first compound 8 µM): 0.291
- relative viability (NCI-H1792; first compound 0.08 µM): 0.758
- relative viability (NCI-H1792; first compound 0.253 µM): 0.691
- relative viability (NCI-H1792; first compound 0.8 µM): 0.666
- relative viability (NCI-H1792; first compound 2.53 µM): 0.663
- relative viability (NCI-H1792; first compound 8 µM): 0.736
- relative viability (201T; first compound 0.08 µM): 0.821
- relative viability (201T; first compound 0.253 µM): 0.825
- relative viability (201T; first compound 0.8 µM): 0.711
- relative viability (201T; first compound 2.53 µM): 0.709
- relative viability (201T; first compound 8 µM): 0.584
- relative viability (UMC-11; first compound 0.08 µM): 0.515
- relative viability (UMC-11; first compound 0.253 µM): 0.421
- relative viability (UMC-11; first compound 0.8 µM): 0.51
- relative viability (UMC-11; first compound 2.53 µM): 0.357
- relative viability (UMC-11; first compound 8 µM): 0.312
- relative viability (RERF-LC-KJ; first compound 0.08 µM): 0.509
- relative viability (RERF-LC-KJ; first compound 0.253 µM): 0.513
- relative viability (RERF-LC-KJ; first compound 0.8 µM): 0.52
- relative viability (RERF-LC-KJ; first compound 2.53 µM): 0.427
- relative viability (RERF-LC-KJ; first compound 8 µM): 0.448
- relative viability (HCC-15; first compound 0.08 µM): 0.817
- relative viability (HCC-15; first compound 0.253 µM): 0.668
- relative viability (HCC-15; first compound 0.8 µM): 0.472
- relative viability (HCC-15; first compound 2.53 µM): 0.618
- relative viability (HCC-15; first compound 8 µM): 0.573
- relative viability (NCI-H1651; first compound 0.08 µM): 0.657
- relative viability (NCI-H1651; first compound 0.253 µM): 0.7
- relative viability (NCI-H1651; first compound 0.8 µM): 0.633
- relative viability (NCI-H1651; first compound 2.53 µM): 0.757
- relative viability (NCI-H1651; first compound 8 µM): 0.596
- relative viability (LCLC-103H; first compound 0.08 µM): 0.482
- relative viability (LCLC-103H; first compound 0.253 µM): 0.452
- relative viability (LCLC-103H; first compound 0.8 µM): 0.384
- relative viability (LCLC-103H; first compound 2.53 µM): 0.425
- relative viability (LCLC-103H; first compound 8 µM): 0.423
- relative viability (LK-2; first compound 0.08 µM): 0.183
- relative viability (LK-2; first compound 0.253 µM): 0.249
- relative viability (LK-2; first compound 0.8 µM): 0.179
- relative viability (LK-2; first compound 2.53 µM): 0.198
- relative viability (LK-2; first compound 8 µM): 0.167
